In this assay the test system is HIV-1 LAI. The experiment in a line: Single-round infectious HIV-1 LAI envelope luciferase reporter virus infection of MT2 cells. It counts as cell-based. To be noted: Human immunodeficiency virus 1, MT2, 72 h. An excerpt: • Virus production—Human embryonic Kidney cell line, 293T (HEK 293T), was propagated in Dulbecco's Modified Eagle Medium (Invitrogen, Carlsbad, Calif.) containing 10% fetal bovine serum (FBS, Sigma, St. Louis, Mo.). The human T-cell leukemia cell MT2 (AIDS Research and Reference Reagent Program, Cat. 237) was propagated in RPMI 1640 (Invitrogen, Carlsbad, Calif.) containing 10% fetal bovine serum (FBS, Hyclone, Logan, Utah) • Virus infection—Single-round infectious reporter virus was produced by co-transfecting HEK 293T cells with plasmide expressing the HIV-1 LAI envelope along with a plasmid containing an HIV-1 LAI proviral cDNA with the envelope gene replaced by a firefly luciferase reporter gene (Chen et al., Ref 41). Transfections were performed using lipofectAMINE PLUS reagent as described by the manufacturer (Invitrogen, Carlsbad, Calif.). Experimental Procedure • 1. MT2 cells were plated in black, 384 well plates at a cell density of 5×10^3 cells per well in 25 μl RPMI 1640 containing 10% FBS. • 2. Compound (diluted in dimethylsulfoxide and growth medium) was added to cells at 12.5 μl/well, so that the final assay concentration would be ≦50 nM. • 3. 12.5 μl of single-round infectious reporter virus in Dulbecco's Modified Eagle
Medium was added to the plated cells and compound at an approximate multiplicity of infection (MOI) of 0.01, resulting in a final volume of 50 μl per well. • 4. Virus-infected cells were incubated at 37 degrees Celsius in a CO2 incubator and harvested 72 h after infection. • 5. Viral infection was monitored by measuring luciferase expression in the infected cells using a luciferase reporter gene assay kit (Steady-Glo, Promega, Madison, Wis.) as described by the manufacturer. Luciferase activity was then quantified by measuring luminescence using an EnVision Multilabel Plate Readers (PerkinElmer, Waltham, Mass.). • 6. The percent inhibition for each compound was calculated by quantifying the level of luciferase expression in cells infected in the presence of each compound as a percentage of that observed for cells infected in the absence of compound and subtracting such a determined value from 100. • 7. An EC50 provides a method for comparing the antiviral potency of the compounds of the invention. The effective concentration for fifty percent inhibition (EC50) was calculated with the Microsoft Excel Xlfit curve fitting software. For each compound, curves were generated from percent inhibition calculated at 10 different concentrations by using a four parameter logistic model (model 205). Table 1 is the key for the data in Table 2.

Where [1] appears, read: read-out: EC50 Group from Table 1.

Read-outs that look alike come from different tables or passages of the source.

Consider `O=C(C(=O)N1CCC(c2ccccc2)C1)c1c[nH]c2c(-n3ccnn3)ncc(F)c12` (centres unmarked) [Compound 1001], for which it took 38.1 nM to reach a half-maximal effect (EC50). Besides, the EC50 under setting [1] is under 500 nM.
With `O=C(C(=O)N1CCC[C@H](c2ccccc2)C1)c1c[nH]c2c(-n3ccnn3)ncc(F)c12` [Compound 1002], the EC50 under setting [1] was under 500 nM.
The same measure, in the same setting: then `O=C(C(=O)N1CCCC(c2ccc(Cl)cc2)C1)c1c[nH]c2c(-n3ccnn3)ncc(F)c12` (centres unmarked) [Compound 1003], with over 500 nM.
The same measure, in the same setting: in the case of `O=C(C(=O)N1CCCC(c2cccc(F)c2)C1)c1c[nH]c2c(-n3ccnn3)ncc(F)c12` (centres unmarked) [Compound 1004] it was over 500 nM; in that of `O=C(C(=O)N1CCCC(Cc2ccccc2)C1)c1c[nH]c2c(-n3ccnn3)ncc(F)c12` (centres unmarked) [Compound 1005], over 500 nM; in that of `O=C(C(=O)N1CCCC(c2ccccc2)CC1)c1c[nH]c2c(-n3ccnn3)ncc(F)c12` (centres unmarked) [Compound 1006], under 500 nM.
On to `O=C(C(=O)N1CCC(Nc2ccccc2)C1)c1c[nH]c2c(-n3ccnn3)ncc(F)c12` (centres unmarked) [Compound 1007], for which the EC50 under setting [1] was under 500 nM.
For `COc1cnc(-n2cnc(C)n2)c2[nH]cc(C(=O)C(=O)N3CCC(=C(C#N)c4ccccc4)C3)c12` [Compound 1008], the EC50 came out at 18.9 nM. Moreover, the EC50 under setting [1] was under 500 nM.
Take `O=C(C(=O)N1CCC(Oc2ccccc2)CC1)c1c[nH]c2c(-n3ccnn3)ncc(F)c12` [Compound 1009]: under setting [1], the EC50 was under 500 nM.
Take `O=C(C(=O)N1CCC(Nc2ccccc2)CC1)c1c[nH]c2c(-n3ccnn3)ncc(F)c12` [Compound 1010]: the EC50 was 41.8 nM. In addition, the EC50 under setting [1] is under 500 nM.
As for `CCC(=O)N(c1ccccc1)C1CCN(C(=O)C(=O)c2c[nH]c3c(-n4ccnn4)ncc(F)c23)CC1` [Compound 1011], the EC50 under setting [1] is under 500 nM.
With `COc1ccnc2[nH]cc(C(=O)C(=O)N3CCC(Oc4ccccc4)CC3)c12` [Compound 1012], the EC50 under setting [1] was under 500 nM.
On the same count and under the same terms, then `COc1ncc(OC)c2c(C(=O)C(=O)N3CCC(Oc4ccccc4)CC3)c[nH]c12` [Compound 1013], with over 500 nM.
For the compound `COc1ccnc2[nH]cc(C(=O)C(=O)N3CCC(Oc4ccc(Cl)cc4)CC3)c12` [Compound 1014], the midpoint of the response, the EC50, lay at 757 nM. Also, under setting [1], the EC50 is over 500 nM.
Regarding `COc1ncc(OC)c2c(C(=O)C(=O)N3CCC(Oc4ccc(Cl)cc4)CC3)c[nH]c12` [Compound 1015], the EC50 under setting [1] was over 500 nM.
Same read-out and setting: in the case of `O=C(C(=O)N1CCCC(Oc2ccccc2)C1)c1c[nH]c2cccc(F)c12` (centres unmarked) [Compound 1016] it was over 500 nM.
Still for that read-out and setting: in the case of `NC(=O)C1(Nc2ccccc2)CCN(C(=O)C(=O)c2c[nH]c3ccccc23)CC1` [Compound 1017] it was over 500 nM.
Same read-out and setting: then `O=C(C(=O)N1CCC(Nc2cccc(S(=O)(=O)C(F)(F)F)c2)CC1)c1c[nH]c2ccccc12` [Compound 1018], with over 500 nM.
On to `O=C(C(=O)N1CCC(c2cccc(C(F)(F)F)c2)C(O)C1)c1c[nH]c2ccccc12` (centres unmarked) [Compound 1019], for which, under setting [1], the EC50 is over 500 nM.
The same measure, in the same setting: in the case of `COc1ccc(OC2CN(C(=O)C(=O)c3c[nH]c4c(-n5ccnn5)ncc(F)c34)C2)cc1` [Compound 1020] it was under 500 nM.
For the compound `COc1cnc(-n2cnc(C)n2)c2[nH]cc(C(=O)C(=O)N3CCc4ncn(-c5ccccc5)c4CC3)c12` [Compound 2001], a half-maximal response (EC50) required 0.09 nM. For the same compound, the EC50 under setting [1] is under 500 nM.
The corresponding values for `COc1cnc(-n2cnc(C)n2)c2[nH]cc(C(=O)C(=O)N3CCc4nn(-c5ccccc5)cc4C3)c12` [Compound 2002] are 0.92 nM and under 500 nM.
As to `COc1cnc(-n2cnc(C)n2)c2[nH]cc(C(=O)C(=O)N3Cc4nn(-c5ccccc5)c(N)c4C3)c12` [Compound 2003], the EC50 under setting [1] is under 500 nM.
